In the NIST ThermoML archive (doi:10.1021/acs.jced.7b00192):

Experiment: molar heat capacity at constant pressure; mn = molality of the nth substance listed, in mol/kg
Conditions: 10000 kPa, Liquid, Large sample (1 g) DSC

[K+].[OH-] [potassium hydroxide] + O
molar heat capacity at constant pressure [J/K/mol]
Conditions	m1 = 0.201	m1 = 0.5009	m1 = 0.999	m1 = 2.012	m1 = 3	m1 = 4.505	m1 = 6.002
325 K	74.45	73.81	72.8	71.28	70.15	69.18	68.41
337.4 K	74.58	73.96	73.05	71.64	70.55	69.5	68.84
349.7 K	74.72	74.09	–	–	–	–	69.19
349.8 K	–	–	73.21	71.81	70.8	69.82	–
362.1 K	74.89	74.29	73.45	72.13	71.12	70.2	69.62
374.5 K	75.11	74.49	73.67	72.43	71.42	70.5	69.98
386.8 K	75.37	74.76	73.96	72.65	71.69	70.78	70.31
399.2 K	75.69	75.06	74.27	72.97	72.03	71.12	70.62
411.5 K	–	–	–	–	–	–	70.86
411.6 K	76.08	75.46	74.6	73.21	72.28	71.37	–
423.9 K	76.54	75.88	74.91	73.59	72.62	71.69	71.13
436.3 K	77.1	76.36	75.36	73.96	72.91	71.95	71.43
448.6 K	77.74	–	–	–	–	–	71.78
448.7 K	–	76.95	–	–	–	–	–
